Key:
Assay in all cases: Test B pre-/postemergence plant response
Format in all cases: in vivo
[1] = system: corn (Zea mays); conditions: for Corn plant response rating: 8 g ai/ha, postemergence, 0-100 scale; for Plant response rating, Corn: Postemergence
Text: (§1) Seeds of plant species selected from blackgrass (Alopecurus myosuroides), downy bromegrass (Bromus tectorum), green foxtail (Setaria viridis), Italian ryegrass (Lolium multiflorum), wheat (Triticum aestivum), wild oat (Avena fatua), catchweed bedstraw (Galium aparine), bermudagrass (Cynodon dactylon), surinam grass (Brachiaria decumbens), cocklebur (Xanthium strumarium), corn (Zea mays), large crabgrass (Digitaria sanguinalis), woolly cupgrass (Eriochloa villosa), giant foxtail (Setaria faberii), goosegrass (Eleusine indica), johnsongrass (Sorghum halepense), kochia (Kochia scoparia), lambsquarters (Chenopodium album), morningglory (Ipomoea coccinea), eastern black (E.B.) nightshade (Solanum ptycanthum), yellow nutsedge (Cyperus esculentus), pigweed (Amaranthus retroflexus), common ragweed (Ambrosia elation), Russian thistle (Salsola iberica), soybean (Glycine max), common (oilseed) sunflower (Helianthus annuus), and velvetleaf (Abutilon theophrasti) were planted and treated preemergence with test chemicals formulated in a non-phytotoxic solvent mixture which included a surfactant.
(§2) At the same time, plants selected from these crop and weed species and also winter barley (Hordeum vulgare), canarygrass (Phalaris minor), chickweed (Stellaria media) and windgrass (Apera spica-venti) were treated with postemergence applications of some of the test chemicals formulated in the same manner. Plants ranged in height from 2 to 18 cm (1- to 4-leaf stage) for postemergence treatments.
(§3) Plant species in the flooded paddy test consisted of rice (Oryza sativa), umbrella sedge (Cyperus difformis), ducksalad (Heteranthera limosa) and barnyardgrass (Echinochloa crus-galli) grown to the 2-leaf stage for testing. At time of treatment, test pots were flooded to 3 cm above the soil surface, treated by application of test compounds directly to the paddy water, and then maintained at that water depth for the duration of the test. Treated plants and controls were maintained in a greenhouse for 13 to 15 days, after which time all species were compared to controls and visually evaluated. Plant response ratings, summarized in Table B, are based on a scale of 0 to 100 where 0 is no effect and 100 is complete control. A dash (-) response means no test result.

[2] = system: surinam grass (Brachiaria decumbens); conditions: for Surinam Grass plant response rating: postemergence, 0-100 scale; for Plant response rating, Surinam Grass: Postemergence
Text: as §1, §2, §3

[3] = system: wild oat (Avena fatua); conditions: for Oat, Wild plant response rating: postemergence, 0-100 scale; for Plant response rating, Oat, Wild: Postemergence
Text: as §1, §2, §3

[4] = system: common ragweed (Ambrosia elation); conditions: for Ragweed plant response rating: postemergence, 0-100 scale; for Plant response rating, Ragweed: Postemergence
Text: as §1, §2, §3

[5] = system: giant foxtail (Setaria faberii); conditions: for Foxtail, Giant plant response rating: 8 g ai/ha, postemergence, 0-100 scale; for Plant response rating, Foxtail, Giant: Postemergence
Text: as §1, §2, §3

[6] = system: blackgrass (Alopecurus myosuroides); conditions: for Blackgrass plant response rating: 8 g ai/ha, postemergence, 0-100 scale; for Plant response rating, Blackgrass: Postemergence
Text: as §1, §2, §3

[7] = system: johnsongrass (Sorghum halepense); conditions: for Johnsongrass plant response rating: postemergence, 0-100 scale; for Plant response rating, Johnsongrass: Postemergence
Text: as §1, §2, §3

[8] = system: lambsquarters (Chenopodium album); conditions: for Lambsquarters plant response rating: postemergence, 0-100 scale; for Plant response rating, Lambsquarters: Postemergence
Text: as §1, §2, §3

[9] = system: kochia (Kochia scoparia); conditions: for Kochia plant response rating: postemergence, 0-100 scale; for Plant response rating, Kochia: Postemergence
Text: as §1, §2, §3

[10] = system: yellow nutsedge (Cyperus esculentus); conditions: for Nutsedge, Yellow plant response rating: postemergence, 0-100 scale; for Plant response rating, Nutsedge, Yellow: Postemergence
Text: as §1, §2, §3

[11] = system: bermudagrass (Cynodon dactylon); conditions: for Bermudagrass plant response rating: 8 g ai/ha, postemergence, 0-100 scale; for Plant response rating, Bermudagrass: Postemergence
Text: as §1, §2, §3

[12] = system: morningglory (Ipomoea coccinea); conditions: for Morningglory plant response rating: postemergence, 0-100 scale; for Plant response rating, Morningglory: Postemergence
Text: as §1, §2, §3

[13] = system: Italian ryegrass (Lolium multiflorum); conditions: for Ryegrass, Italian plant response rating: postemergence, 0-100 scale; for Plant response rating, Ryegrass, Italian: Postemergence
Text: as §1, §2, §3

[14] = 62 g ai/ha, scale 0 to 100, 0 no effect, 100 complete control

With `Cc1nn(C)c(=O)c(-n2nc(-c3ccc(Cl)cc3)cc2Cl)c1O` [Compound 59] the “Corn plant response rating” value [1] was 0, the “Plant response rating, Corn” value ([1]; 16 g ai/ha, scale 0 to 100) was 85 and the “Plant response rating, Corn” value ([1]; 31 g ai/ha, scale 0 to 100) was 85. For the same molecule, the “Plant response rating, Corn” value [1, 14] was 90, the “Surinam Grass plant response rating” value ([2]; 8 g ai/ha) was 75 and the “Plant response rating, Surinam Grass” value ([2]; 16 g ai/ha, scale 0 to 100) was 85. The “Plant response rating, Surinam Grass” value ([2]; 31 g ai/ha, scale 0 to 100) was 90, the “Plant response rating, Surinam Grass” value [2, 14] was 100 and the “Oat, Wild plant response rating” value ([3]; 8 g ai/ha) was 45. The “Plant response rating, Oat, Wild” value ([3]; 16 g ai/ha, scale 0 to 100) was 60, the “Plant response rating, Oat, Wild” value ([3]; 31 g ai/ha, scale 0 to 100) was 70 and the “Plant response rating, Oat, Wild” value [3, 14] was 80. For the same molecule, the “Ragweed plant response rating” value ([4]; 8 g ai/ha) was 0, the “Plant response rating, Ragweed” value ([4]; 16 g ai/ha, scale 0 to 100) was 0 and the “Plant response rating, Ragweed” value ([4]; 31 g ai/ha, scale 0 to 100) was 0. For the same molecule, the “Plant response rating, Ragweed” value [4, 14] was 0, the “Foxtail, Giant plant response rating” value [5] was 80 and the “Plant response rating, Foxtail, Giant” value ([5]; 16 g ai/ha, scale 0 to 100) was 85. The “Plant response rating, Foxtail, Giant” value ([5]; 31 g ai/ha, scale 0 to 100) was 90, the “Plant response rating, Foxtail, Giant” value [5, 14] was 95 and the “Blackgrass plant response rating” value [6] was 0. The “Plant response rating, Blackgrass” value ([6]; 16 g ai/ha, scale 0 to 100) was 60, the “Plant response rating, Blackgrass” value ([6]; 31 g ai/ha, scale 0 to 100) was 90 and the “Plant response rating, Blackgrass” value [6, 14] was 90. For the same molecule, the “Johnsongrass plant response rating” value ([7]; 8 g ai/ha) was 0, the “Plant response rating, Johnsongrass” value ([7]; 16 g ai/ha, scale 0 to 100) was 0 and the “Plant response rating, Johnsongrass” value ([7]; 31 g ai/ha, scale 0 to 100) was 60. The “Plant response rating, Johnsongrass” value [7, 14] was 80, the “Lambsquarters plant response rating” value ([8]; 8 g ai/ha) was 0 and the “Plant response rating, Lambsquarters” value ([8]; 16 g ai/ha, scale 0 to 100) was 0. For the same molecule, the “Plant response rating, Lambsquarters” value ([8]; 31 g ai/ha, scale 0 to 100) was 0, the “Plant response rating, Lambsquarters” value [8, 14] was 0 and the “Kochia plant response rating” value ([9]; 8 g ai/ha) was 0. The “Plant response rating, Kochia” value ([9]; 16 g ai/ha, scale 0 to 100) was 0, the “Plant response rating, Kochia” value ([9]; 31 g ai/ha, scale 0 to 100) was 0 and the “Plant response rating, Kochia” value [9, 14] was 0. For the same molecule, the “Nutsedge, Yellow plant response rating” value ([10]; 8 g ai/ha) was 0, the “Plant response rating, Nutsedge, Yellow” value ([10]; 16 g ai/ha, scale 0 to 100) was 0 and the “Plant response rating, Nutsedge, Yellow” value ([10]; 31 g ai/ha, scale 0 to 100) was 0. The “Plant response rating, Nutsedge, Yellow” value [10, 14] was 0, the “Bermudagrass plant response rating” value [11] was 0 and the “Plant response rating, Bermudagrass” value ([11]; 16 g ai/ha, scale 0 to 100) was 0. The “Plant response rating, Bermudagrass” value ([11]; 31 g ai/ha, scale 0 to 100) was 0, the “Plant response rating, Bermudagrass” value [11, 14] was 20 and the “Morningglory plant response rating” value ([12]; 8 g ai/ha) was 0. For the same molecule, the “Plant response rating, Morningglory” value ([12]; 16 g ai/ha, scale 0 to 100) was 0, the “Plant response rating, Morningglory” value ([12]; 31 g ai/ha, scale 0 to 100) was 0 and the “Plant response rating, Morningglory” value [12, 14] was 0. The “Ryegrass, Italian plant response rating” value ([13]; 8 g ai/ha) was 80, the “Plant response rating, Ryegrass, Italian” value ([13]; 16 g ai/ha, scale 0 to 100) was 80 and the “Plant response rating, Ryegrass, Italian” value ([13]; 31 g ai/ha, scale 0 to 100) was 85. For the same molecule, the “Plant response rating, Ryegrass, Italian” value [13, 14] was 85.
For `CCc1cc(-c2ccc(Br)cc2)nn1-c1c(O)cnn(CC(F)(F)F)c1=O` [Compound 73], the “Corn plant response rating” value [1] was 95, the “Plant response rating, Corn” value ([1]; 16 g ai/ha, scale 0 to 100) was 100 and the “Plant response rating, Corn” value ([1]; 31 g ai/ha, scale 0 to 100) was 100. The “Plant response rating, Corn” value [1, 14] was 100, the “Surinam Grass plant response rating” value ([2]; 8 g ai/ha) was 60 and the “Surinam Grass plant response rating” value ([2]; 16 g ai/ha) was 90. The “Plant response rating, Surinam Grass” value ([2]; 31 g ai/ha, scale 0 to 100) was 90, the “Plant response rating, Surinam Grass” value [2, 14] was 100 and the “Oat, Wild plant response rating” value ([3]; 8 g ai/ha) was 70. The “Oat, Wild plant response rating” value ([3]; 16 g ai/ha) was 95, the “Plant response rating, Oat, Wild” value ([3]; 31 g ai/ha, scale 0 to 100) was 100 and the “Plant response rating, Oat, Wild” value [3, 14] was 100. For the same molecule, the “Ragweed plant response rating” value ([4]; 8 g ai/ha) was 0, the “Ragweed plant response rating” value ([4]; 16 g ai/ha) was 0 and the “Plant response rating, Ragweed” value ([4]; 31 g ai/ha, scale 0 to 100) was 0. For the same molecule, the “Plant response rating, Ragweed” value [4, 14] was 0, the “Foxtail, Giant plant response rating” value [5] was 30 and the “Plant response rating, Foxtail, Giant” value ([5]; 16 g ai/ha, scale 0 to 100) was 70. The “Plant response rating, Foxtail, Giant” value ([5]; 31 g ai/ha, scale 0 to 100) was 90, the “Plant response rating, Foxtail, Giant” value [5, 14] was 100 and the “Blackgrass plant response rating” value [6] was 60. For the same molecule, the “Plant response rating, Blackgrass” value ([6]; 16 g ai/ha, scale 0 to 100) was 100, the “Plant response rating, Blackgrass” value ([6]; 31 g ai/ha, scale 0 to 100) was 100 and the “Plant response rating, Blackgrass” value [6, 14] was 100. For the same molecule, the “Johnsongrass plant response rating” value ([7]; 8 g ai/ha) was 70, the “Johnsongrass plant response rating” value ([7]; 16 g ai/ha) was 85 and the “Plant response rating, Johnsongrass” value ([7]; 31 g ai/ha, scale 0 to 100) was 90. For the same molecule, the “Plant response rating, Johnsongrass” value [7, 14] was 100, the “Lambsquarters plant response rating” value ([8]; 8 g ai/ha) was 0 and the “Lambsquarters plant response rating” value ([8]; 16 g ai/ha) was 0. The “Plant response rating, Lambsquarters” value ([8]; 31 g ai/ha, scale 0 to 100) was 0, the “Plant response rating, Lambsquarters” value [8, 14] was 0 and the “Kochia plant response rating” value ([9]; 8 g ai/ha) was 0. For the same molecule, the “Kochia plant response rating” value ([9]; 16 g ai/ha) was 0, the “Plant response rating, Kochia” value ([9]; 31 g ai/ha, scale 0 to 100) was 0 and the “Plant response rating, Kochia” value [9, 14] was 0. For the same molecule, the “Nutsedge, Yellow plant response rating” value ([10]; 8 g ai/ha) was 0, the “Nutsedge, Yellow plant response rating” value ([10]; 16 g ai/ha) was 0 and the “Plant response rating, Nutsedge, Yellow” value ([10]; 31 g ai/ha, scale 0 to 100) was 0. For the same molecule, the “Plant response rating, Nutsedge, Yellow” value [10, 14] was 0, the “Bermudagrass plant response rating” value [11] was 0 and the “Plant response rating, Bermudagrass” value ([11]; 16 g ai/ha, scale 0 to 100) was 0. The “Plant response rating, Bermudagrass” value ([11]; 31 g ai/ha, scale 0 to 100) was 10, the “Plant response rating, Bermudagrass” value [11, 14] was 10 and the “Morningglory plant response rating” value ([12]; 8 g ai/ha) was 0. For the same molecule, the “Morningglory plant response rating” value ([12]; 16 g ai/ha) was 0, the “Plant response rating, Morningglory” value ([12]; 31 g ai/ha, scale 0 to 100) was 0 and the “Plant response rating, Morningglory” value [12, 14] was 0. For the same molecule, the “Ryegrass, Italian plant response rating” value ([13]; 8 g ai/ha) was 45, the “Ryegrass, Italian plant response rating” value ([13]; 16 g ai/ha) was 70 and the “Plant response rating, Ryegrass, Italian” value ([13]; 31 g ai/ha, scale 0 to 100) was 100. For the same molecule, the “Plant response rating, Ryegrass, Italian” value [13, 14] was 100.

Reference: patent publication US20100267561A1, “HERBICIDAL PYRIDAZINONE DERIVATIVES” (priority 2007, published 2010)
